The nature of one assay: cells. The note with it: HEK293.
Assay [1] is described as follows: viability loss in HepG2 liver cells – cell-based, ATP luminescence, cherry-pick, set 6, cytotoxicity control, dose response (AID 1053125). The class given is functional.
Assay [2] in a line: P. falciparum Dd2 growth inhibitors, dose response, SYBR Green, cherry-picked samples (AID 1159567). The class given is functional, cell-based.
A short description of assay [3]: YAP1 overexpression rescue of CTGF inhibition – DLD1 cells, RT-qPCR, cherry-pick, mechanism study for YAP1 pathway inhibitor project, dose response (AID 1053127). The class given is functional, cell-based. The note with it: DLD-1. A general note: Real-time PCR tracks product formation cycle by cycle.
Assay [4] is described as follows: CTGF mRNA reduction in DLD1 cells – cell-based, DLD1 colon cancer, RT-qPCR, cherry-pick, dose response (AID 1053122). The assay is classed as functional. The note with it: Cancer cell lines.
The target in assay [5] is NAD-dependent protein deacylase sirtuin-5, mitochondrial (Homo sapiens, UniProt Q9NXA8). Kind of assay: sirtuin-5 deacylation blockers, concentration series – biochemical, fluorescence imaging, cherry-pick, set 5, dose response (AID 720591).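 Note: desuccinylation of succinyl peptide AMC substrate read as fluorescence after trypsin release; potency of inhibitors that lower fluorescence and may act on trypsin instead.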
A short description of assay [6]: viability loss in MITF-independent A375 cells – cell-based, CellTiter-Glo luminescence, dry powder, set 2, counter-screen for MITF inhibitor project, dose response (AID 624489).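 Note: actives are compounds lowering A375 viability meaning general cytotoxicity.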 The assay is classed as functional. (In general: ATP-based viability assays read luminescence as a measure of living cells.)
A short description of assay [7]: cytotoxicity in MITF-independent A375 cells – cell-based, CellTiter-Glo luminescence, dry powder, set 4, counter-screen for MITF inhibitor project, dose response (AID 624364).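 Note: A375 melanoma cells are MITF independent so this is a counter screen.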 The assay is classed as functional. The note with it: A-375.
Assay [8] is described as follows: COV362 cell viability loss – plate reader, dry powder, SA12, cytotoxicity control for PAX8 inhibitor project, dose response (AID 743144). The assay is classed as functional, cell-based.
A short description of assay [9]: OV-90 cell viability loss – plate reader, dry powder, SA8, PAX8 inhibitor project, dose response (AID 743149). The assay is classed as functional, cell-based.
Assay [10] in a line: COV434 cell viability loss – plate reader, dry powder, SA7, cytotoxicity control for PAX8 inhibitor project, dose response (AID 743145). The class given is functional, cell-based.
Assay [11] can be described thus: OVCAR4 cell viability loss – plate reader, dry powder, SA11, cytotoxicity control for PAX8 inhibitor project, dose response (AID 743150). The class given is functional, cell-based. The note with it: OVCAR-4.
Assay [12] can be described thus: PAX5 cellular inhibition readout – cell-based, plate reader, dry powder samples, selectivity assay for PAX8 inhibitor project, dose response (AID 743047).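 Note: HEK293 cells carrying a Pax5 driven CD19 promoter luciferase reporter; potency of inhibitors that lower reporter luminescence.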 The class given is functional.
A short description of assay [13]: A2780 cell killing – plate reader, dry powder samples, cytotoxicity control, dose response (AID 743046). The class given is functional, cell-based.
Assay [14] in a line: inhibitors acting on PAX2 in cells – cell-based, plate reader, dry powder samples, selectivity assay for PAX8 inhibitor project, dose response (AID 743048).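 Note: HEK293 cells carrying a WT1 promoter luciferase reporter driven by expressed Pax2; potency is for inhibition of Pax2 driven reporter signal.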 The assay is classed as functional.
Assay [15] is described as follows: toxicity toward immortalized ovarian surface epithelium – cell-based, plate reader, dry powder samples, cytotoxicity control for PAX8 inhibitor project, dose response (AID 743045). The assay is classed as functional.
The nature of assay [16]: Fluorescence-based cell-based high throughput dose response assay for inhibitors of the interaction of nucleotide-binding oligomerization domain containing 2 (NOD2) and the receptor-interacting serine-threonine kinase 2 (RIPK2). The assay is classed as functional. The note with it: Homo sapiens.
The next assay addresses Paired box protein Pax-8 (Homo sapiens, UniProt Q06710). Put plainly: PAX8 transcriptional activity inhibition in RMG-I – RMG-I cells, luciferase, cherry-pick, dose response (AID 687027).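 Note: luciferase reporter driven by Pax8 target thyroperoxidase promoter measured by SteadyGlo luminescence.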 The class given is functional, cell-based.
Assay [17] in a line: PAX8-dependent cell viability loss – plate reader, dry powder, dose response (AID 743049). The class given is functional, cell-based.
Assay [18] in a line: IGROV1 cell killing – plate reader, dry powder samples, PAX8 inhibitor project, dose response (AID 743043). The class given is functional, cell-based. The note with it: IGROV-1.
Assay [19] in a line: OVCAR-3 cell viability loss – plate reader, dry powder samples, PAX8 inhibitor project, dose response (AID 743044). The class given is functional, cell-based.

The source made the active and inactive calls. Cut-off read from the data, not from the text of the source, for most assays here: actives have a measured AC50 and inactives only a lower limit.

Sequence of NAD-dependent protein deacylase sirtuin-5, mitochondrial (Q9NXA8 whole entry): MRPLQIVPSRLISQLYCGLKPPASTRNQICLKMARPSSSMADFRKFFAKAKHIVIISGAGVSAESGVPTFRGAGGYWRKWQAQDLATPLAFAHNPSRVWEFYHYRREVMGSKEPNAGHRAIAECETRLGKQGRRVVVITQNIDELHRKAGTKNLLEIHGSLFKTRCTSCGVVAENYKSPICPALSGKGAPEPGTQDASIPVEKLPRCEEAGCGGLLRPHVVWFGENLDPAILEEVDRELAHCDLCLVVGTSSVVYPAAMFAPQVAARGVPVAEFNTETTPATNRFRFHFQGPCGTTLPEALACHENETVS
Sequence of Paired box protein Pax-8 (Q06710 whole entry): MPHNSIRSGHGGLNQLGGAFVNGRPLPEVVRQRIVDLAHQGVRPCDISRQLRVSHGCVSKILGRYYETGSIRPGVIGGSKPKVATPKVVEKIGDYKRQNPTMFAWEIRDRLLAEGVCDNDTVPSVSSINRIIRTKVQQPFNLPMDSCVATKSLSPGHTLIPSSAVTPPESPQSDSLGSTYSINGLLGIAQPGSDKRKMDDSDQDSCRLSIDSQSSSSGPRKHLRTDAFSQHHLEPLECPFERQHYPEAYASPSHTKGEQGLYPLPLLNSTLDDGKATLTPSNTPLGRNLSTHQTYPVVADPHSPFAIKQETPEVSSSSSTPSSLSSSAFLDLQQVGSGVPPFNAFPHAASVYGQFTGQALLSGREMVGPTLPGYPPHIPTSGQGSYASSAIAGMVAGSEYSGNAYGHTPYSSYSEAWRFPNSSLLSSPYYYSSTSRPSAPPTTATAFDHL

As a reminder, the AC50 is the midpoint of the concentration-response curve, whichever way the signal moves. Turning to `Cc1ccc(OCC(=O)NNc2c3ccccc3nc3ccccc23)cc1`, the results for the concentration at half-maximal activity (AC50) (in “cells”; in assay [1]) were 27.7 µM (active) and > 52 µM (inactive), respectively.

With `CO[C@@H]1CN(C)C(=O)c2ccc(NC(=O)c3nc4ccccc4s3)cc2OC[C@@H](C)N(Cc2cccnc2)C[C@H]1C`, the AC50 in assay [2] is 4.6 µM (active); in assay [3], 19.6 µM (active); in assay [4], 5.03 µM (active).

Consider `CN(C)CCN(Cc1cccs1)S(=O)(=O)c1csc(C(N)=O)c1`, for which, in assay [5], the AC50 was > 30 µM (inactive).

For `O=C1C(Nc2ccccc2)=C(N2CCOCC2)C(=O)c2ccccc21`, the concentration at half-maximal activity (AC50) in assay [6] was 65.7 µM (active); in assay [6] (A-375), > 70 µM (inactive); in assay [7], > 70 µM (inactive).

Broadly, the IC50 is the concentration that inhibits the measured activity by half. As to `Cc1cccc2sc(N(CCCN(C)C)C(=O)CCS(=O)(=O)c3ccccc3)nc12`, the concentration at half-maximal activity (AC50) in assay [8] is 20.3 µM (active); in [9] it was 17.1 µM (active); in assay [10], 8.43 µM (active); in assay [11] it was 34.8 µM (active); in assay [12], 43.1 µM (active); in [13], 6.9 µM (active). Also, the AC50 in [14] was 35.7 µM (active); in [15], 21.8 µM (active); at Paired box protein Pax-8, 6.18 µM (active); in assay [17] it was 7.67 µM (active); in [18], 11.5 µM (active); in assay [19] it was 8.92 µM (active). For the same compound, the half-maximal inhibitory concentration (IC50) in assay [16] was 6.59 µM (active).
